Earlier results in publication PMC12329520 (Molecular Therapy. Nucleic Acids, 2025).

System: exon 23 of the Dmd gene
Conditions: CP10 conjugated to 2OMePS ASO, mdx mouse

Substance: QLFPLFR [CP10]
- exon skipping in skeletal muscle tissues and heart compared with an unconjugated ASO of the same chemistry: significant improvement in exon skipping
